Data on six cell lines can be found in the supplement of paper PMC10307832.

What all share (assay): relative viability (nuclei count vs DMSO), 5 days (fraction); higher = more cells survive
Compound in the assay “Tosedostat + Olaparib”: CC(C)C[C@@H](C(=O)N[C@H](C(=O)OC1CCCC1)c1ccccc1)[C@H](O)C(=O)NO [Tosedostat] + O=C(c1cc(Cc2n[nH]c(=O)c3ccccc23)ccc1F)N1CCN(C(=O)C2CC2)CC1 [Olaparib] (partner 8 µM)
In short, it runs like this: (§1)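 Relative viability was taken as the ratio of nuclei in treated wells to nuclei in vehicle wells. Lung cancer cell lines in 1536-well plates received compounds by pin tool one day after seeding, either one drug alone or a fixed anchor-drug dose plus five library-drug doses (not always all listed) in √10 steps. Nuclei were counted on 4× images after 5 days of treatment, and values are medians of duplicate plates.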

Compound in the assay “Tosedostat + AZD7762”: CC(C)C[C@@H](C(=O)N[C@H](C(=O)OC1CCCC1)c1ccccc1)[C@H](O)C(=O)NO [Tosedostat] + NC(=O)Nc1cc(-c2cccc(F)c2)sc1C(=O)N[C@H]1CCCNC1 [AZD7762] (partner 0.2 µM)
Put shortly:
as §1

Compound in assay [1]: CC1=NN=C(O1)C2=NN=C(C=C2)N3CCC(CC3)OC4=C(C=CC(=C4)F)Cl + COc1cc2c(Oc3ccc(NC(=O)C4(C(=O)Nc5ccc(F)cc5)CC4)cc3F)ccnc2cc1OCCCN1CCOCC1 [Foretinib] (partner 0.25 µM)
Put shortly: as §1

Compound in assay [2]: CC1=NN=C(O1)C2=NN=C(C=C2)N3CCC(CC3)OC4=C(C=CC(=C4)F)Cl + C[C@@H](Oc1cc(-c2cnn(C3CCNCC3)c2)cnc1N)c1c(Cl)ccc(F)c1Cl [Crizotinib] (partner 1 µM)
In short, it runs like this: as §1

On to NCI-H2347, for which the relative viability with Tosedostat + Olaparib (first compound 0.02 µM) is 0.694; with Tosedostat + Olaparib (first compound 0.06325 µM) it was 0.618; with Tosedostat + Olaparib (first compound 0.2 µM), 0.539; with Tosedostat + Olaparib (first compound 0.6325 µM) it was 0.58; with Tosedostat + Olaparib (first compound 2 µM) it was 0.484; with Tosedostat + AZD7762 (first compound 0.02 µM), 0.631. For the same cell line, the relative viability in the assay with Tosedostat + AZD7762 (first compound 0.06325 µM) stood at 0.821; with Tosedostat + AZD7762 (first compound 0.2 µM), 0.863; in the assay with Tosedostat + AZD7762 (first compound 0.6325 µM) it was 0.745; with Tosedostat + AZD7762 (first compound 2 µM), 0.682; in assay [1] (first compound 0.253 µM), 0.904; in assay [1] (first compound 0.8 µM), 0.931. Moreover, the relative viability worked out at 0.707 in assay [1] (first compound 2.53 µM); 0.824 in assay [1] (first compound 8 µM); 0.734 in assay [2] (first compound 0.253 µM); 0.522 in assay [2] (first compound 0.8 µM); 0.646 in assay [2] (first compound 2.53 µM); 0.607 in assay [2] (first compound 8 µM).

On to NCI-H2405, for which the relative viability in the assay with Tosedostat + Olaparib (first compound 0.02 µM) was 0.972; in the assay with Tosedostat + Olaparib (first compound 0.06325 µM) it was 0.902; in the assay with Tosedostat + Olaparib (first compound 0.2 µM), 0.856; with Tosedostat + Olaparib (first compound 0.6325 µM), 0.777; in the assay with Tosedostat + Olaparib (first compound 2 µM), 0.697; with Tosedostat + AZD7762 (first compound 0.02 µM), 0.817. Also, the relative viability came to 0.744 with Tosedostat + AZD7762 (first compound 0.06325 µM); 0.718 with Tosedostat + AZD7762 (first compound 0.2 µM); 0.652 with Tosedostat + AZD7762 (first compound 0.6325 µM); 0.715 with Tosedostat + AZD7762 (first compound 2 µM); 0.582 in assay [1] (first compound 0.253 µM); 0.564 in assay [1] (first compound 0.8 µM). For the same cell line, the relative viability in assay [1] (first compound 2.53 µM) came out at 0.546; in assay [1] (first compound 8 µM) it was 0.555; in assay [2] (first compound 0.253 µM), 0.503; in assay [2] (first compound 0.8 µM), 0.428; in assay [2] (first compound 2.53 µM) it was 0.465; in assay [2] (first compound 8 µM), 0.428.

For NCI-H3122, the relative viability in the assay with Tosedostat + Olaparib (first compound 0.02 µM) was determined as 0.631; with Tosedostat + Olaparib (first compound 0.06325 µM), 0.593; in the assay with Tosedostat + Olaparib (first compound 0.2 µM) it was 0.574; in the assay with Tosedostat + Olaparib (first compound 0.6325 µM), 0.508; with Tosedostat + Olaparib (first compound 2 µM), 0.562; in the assay with Tosedostat + AZD7762 (first compound 0.02 µM), 1.1. Moreover, the relative viability in the assay with Tosedostat + AZD7762 (first compound 0.06325 µM) is 0.919; with Tosedostat + AZD7762 (first compound 0.2 µM), 0.894; with Tosedostat + AZD7762 (first compound 0.6325 µM), 0.875; in the assay with Tosedostat + AZD7762 (first compound 2 µM), 1.14; in assay [1] (first compound 0.253 µM), 0.431; in assay [1] (first compound 0.8 µM), 0.409. In addition, the relative viability was 0.438 in assay [1] (first compound 2.53 µM); 0.397 in assay [1] (first compound 8 µM); 0.3 in assay [2] (first compound 0.253 µM); 0.303 in assay [2] (first compound 0.8 µM); 0.318 in assay [2] (first compound 2.53 µM); 0.359 in assay [2] (first compound 8 µM).

Regarding PC-3 [JPC-3], the relative viability in the assay with Tosedostat + Olaparib (first compound 0.02 µM) was determined as 1.11; in the assay with Tosedostat + Olaparib (first compound 0.06325 µM), 1.11; in the assay with Tosedostat + Olaparib (first compound 0.2 µM), 1; with Tosedostat + Olaparib (first compound 0.6325 µM), 0.921; with Tosedostat + Olaparib (first compound 2 µM), 0.747; with Tosedostat + AZD7762 (first compound 0.02 µM), 0.752. Moreover, the relative viability with Tosedostat + AZD7762 (first compound 0.06325 µM) turned out to be 0.747; with Tosedostat + AZD7762 (first compound 0.2 µM), 0.746; with Tosedostat + AZD7762 (first compound 0.6325 µM) it was 0.647; with Tosedostat + AZD7762 (first compound 2 µM) it was 0.54; in assay [1] (first compound 0.253 µM), 0.774; in assay [1] (first compound 0.8 µM), 0.923. Besides, the relative viability in assay [1] (first compound 2.53 µM) is 0.874; in assay [1] (first compound 8 µM), 0.855; in assay [2] (first compound 0.253 µM) it was 0.754; in assay [2] (first compound 0.8 µM), 0.791; in assay [2] (first compound 2.53 µM), 0.818; in assay [2] (first compound 8 µM) it was 0.75.

In the case of PC-14, the relative viability is 0.264 with Tosedostat + Olaparib (first compound 0.02 µM); 0.256 in the assay with Tosedostat + Olaparib (first compound 0.06325 µM); 0.193 with Tosedostat + Olaparib (first compound 0.2 µM); 0.152 in the assay with Tosedostat + Olaparib (first compound 0.6325 µM); 0.122 with Tosedostat + Olaparib (first compound 2 µM); 0.434 with Tosedostat + AZD7762 (first compound 0.02 µM). Further, the relative viability is 0.352 with Tosedostat + AZD7762 (first compound 0.06325 µM); 0.314 with Tosedostat + AZD7762 (first compound 0.2 µM); 0.273 with Tosedostat + AZD7762 (first compound 0.6325 µM); 0.0971 in the assay with Tosedostat + AZD7762 (first compound 2 µM); 0.806 in assay [1] (first compound 0.253 µM); 0.779 in assay [1] (first compound 0.8 µM). The relative viability in assay [1] (first compound 2.53 µM) was 0.768; in assay [1] (first compound 8 µM), 0.759; in assay [2] (first compound 0.253 µM), 0.747; in assay [2] (first compound 0.8 µM), 0.636; in assay [2] (first compound 2.53 µM), 0.713; in assay [2] (first compound 8 µM), 0.739.

Take RERF-LC-KJ: the relative viability with Tosedostat + Olaparib (first compound 0.02 µM) is 0.903; in the assay with Tosedostat + Olaparib (first compound 0.06325 µM) it was 0.999; with Tosedostat + Olaparib (first compound 0.2 µM), 0.829; with Tosedostat + Olaparib (first compound 0.6325 µM) it was 0.757; with Tosedostat + Olaparib (first compound 2 µM), 0.747; with Tosedostat + AZD7762 (first compound 0.02 µM), 1.12. Also, the relative viability in the assay with Tosedostat + AZD7762 (first compound 0.06325 µM) was 1.08; with Tosedostat + AZD7762 (first compound 0.2 µM), 1.08; with Tosedostat + AZD7762 (first compound 0.6325 µM) it was 0.912; with Tosedostat + AZD7762 (first compound 2 µM) it was 0.664; in assay [1] (first compound 0.253 µM), 0.617; in assay [1] (first compound 0.8 µM) it was 0.533. Also, the relative viability in assay [1] (first compound 2.53 µM) stood at 0.544; in assay [1] (first compound 8 µM), 0.519; in assay [2] (first compound 0.253 µM) it was 0.496; in assay [2] (first compound 0.8 µM), 0.498; in assay [2] (first compound 2.53 µM), 0.495; in assay [2] (first compound 8 µM), 0.458.
